In patent US7915238B2, “Immunomodulatory compounds and methods of use thereof” (Eisai R & D Management Co., Ltd., priority 1999, dated 2011):
Like-named read-outs stand apart in the source and are kept apart here.

System: Human Whole Blood
Experiment: Cytokine release in human whole blood (ELISA)
Assay type: cell-based
Details: for TNF-alpha release in whole blood at 10 μM compound (% of 10 ng/ml LPS response): compounds tested at 10 μM, compared to 10 ng/ml LPS, 3-hour incubation; for EC50: whole blood, read-out: WB ED50 vs LPS@ 10 ng/ml
Protocol: The most readily available human system to test compound activity on monocytes/macrophages is in whole blood. Various concentrations of compounds of the invention were added as 10× stocks in 50 μl of Ca^++, Mg^++-free Hank's balanced salt solution (HBSS) followed by 50 μl of HBSS into 400 μl of heparinized whole blood obtained from normal volunteers (18-51 years old; 110-230 lb.) into the wells of plastic assay plates, for a total volume of 500 μl/well (final concentration of whole blood was 80%). After a 3-hour incubation with gentle shaking at 37° C. in a 5% CO2 atmosphere, the assay plates were centrifuged at 1000×g for 10 min. at 4° C. and plasma was drawn off and frozen at −80° C. Plasma samples were analyzed for TNF-alpha, IL-10, and IL-12 by ELISA (Genzyme Corp., Cambridge, Mass.). Each assay point was tested in triplicate.
This stimulatory activity can be compared to that of 10 ng/ml endotoxin (or LPS) present in similar incubations in the same assay.

Compound	TNF-alpha release in whole blood at 10 μM compound (% of 10 ng/ml LPS response)	EC50 (vs. % of LPS at 10 ng/ml) [nM]	also measured
CCCCCC/C=C\CCCC(=O)O[C@H](CCCCCCC)CC(=O)NC(COCC[C@H](O)CCCCCCC)COP(=O)([O-])OCCNC(=O)c1ccccc1C(=O)NCCOP(=O)([O-])OCC(COCC[C@H](O)CCCCCCC)NC(=O)C[C@@H](CCCCCCC)OC(=O)CCC/C=C\CCCCCC.[Na+].[Na+] (stereo partly shown) [compound 112859]	0 % of LPS	–	–
CCCCCC/C=C\CCCC(=O)O[C@H](CCCCCCC)CCOCC(COP(=O)([O-])OCCNC(=O)CC(=O)NCCOP(=O)([O-])OCC(COCC[C@@H](CCCCCCC)OC(=O)CCC/C=C\CCCCCC)NC(=O)CCCCCCCCCCCCCCC)NC(=O)CCCCCCCCCCCCCCC.[Na+].[Na+] (stereo partly shown) [compound 119000]	60 % of LPS	–	–
CCCCCC/C=C\CCCC(=O)O[C@H](CCCCCCC)CC(=O)NC(COCC[C@H](O)CCCCCCC)COP(=O)([O-])OCCNC(=O)C1OC(C)(C)OC1C(=O)NCCOP(=O)([O-])OCC(COCC[C@H](O)CCCCCCC)NC(=O)C[C@@H](CCCCCCC)OC(=O)CCC/C=C\CCCCCC.[Na+].[Na+] (stereo partly shown) [compound 113634]	0 % of LPS	–	–
CCCCCCCCCCCCCC(=O)N[C@H](COCC[C@H](CCCCCCC)NC(=O)CCCCCCCCCCC)COP(=O)(O)OCCNC(=O)NCCOP(=O)(O)OC[C@@H](COCC[C@H](CCCCCCC)NC(=O)CCCCCCCCCCC)NC(=O)CCCCCCCCCCCCC [compound 804253]	–	> 10000	–
CCCCCCCCCCCCCC(=O)N[C@H](COCC[C@@H](CCCCCCC)OC(=O)CCCCCCCCCCC)COP(=O)(O)OCCNC(=O)CC(=O)NCCOP(=O)(O)OC[C@H](COCC[C@@H](CCCCCCC)OC(=O)CCCCCCCCCCC)NC(=O)CCCCCCCCCCCCC [compound 803733]	–	700	–
CCCCCC/C=C\CCCC(=O)O[C@H](CCCCCCC)CCOCC(COP(=O)([O-])OCCNC(=O)NCCOP(=O)([O-])OCC(COCC[C@@H](CCCCCCC)OC(=O)CCC/C=C\CCCCCC)NC(=O)C[C@@H](CCCCCCC)OC(=O)CCC/C=C\CCCCCC)NC(=O)C[C@@H](CCCCCCC)OC(=O)CCC/C=C\CCCCCC.[Na+].[Na+] (stereo partly shown) [compound 112093]	0 % of LPS	–	–
CCCCCCCCCCCC(=O)CC(=O)NC(COCC[C@H](O)CCCCCCC)COP(=O)([O-])OCCNC(=O)NCCOP(=O)([O-])OCC(COCC[C@H](O)CCCCCCC)NC(=O)CC(=O)CCCCCCCCCCC.[Na+].[Na+] (stereo partly shown) [compound 112043]	0 % of LPS	–	–
CCCCCCCCCCCCCC(=O)N[C@H](COCC[C@@H](CCCCCCC)OCCCCCCCCCCCC)COP(=O)(O)OCCNC(=O)NCCOP(=O)(O)OC[C@@H](COCC[C@@H](CCCCCCC)OCCCCCCCCCCCC)NC(=O)CCCCCCCCCCCCC [compound 804372]	–	400	–
CCCCCCCCCCCCCC(=O)NC(COCC[C@@H](CCCCCCC)OC(=O)CCCCCCCCCCC)COP(=O)([O-])OCCNC(=O)NCCOP(=O)([O-])OCC(COCC[C@@H](CCCCCCC)OC(=O)CCCCCCCCCCC)NC(=O)CCCCCCCCCCCCC.[Na+].[Na+] (stereo partly shown) [ER 119327]	–	–	TNF-alpha release from blood-borne cells (FIG. 1): stimulate blood-borne cells to release TNF-alpha
CCCCCC/C=C\CCCC(=O)O[C@H](CCCCCCC)CCOCC(COP(=O)(O)OCCNC(=O)C(Cc1ccc(OCCNC(=O)CCCCC(=O)O)cc1)C(=O)NCCOP(=O)(O)OCC(COCC[C@@H](CCCCCCC)OC(=O)CCC/C=C\CCCCCC)NC(=O)CCCCCCCCCCCCC)NC(=O)CCCCCCCCCCCCC (stereo partly shown) [compound 803045]	65 % of LPS	–	–
CCCCCCCCCCCCCC(=O)N[C@H](COCC[C@@H](CCCCCCC)OC(=O)CCCCCCCCCCC)COP(=O)(O)OCCNC(=O)NCCOP(=O)(O)OC[C@@H](COCC[C@@H](CCCCCCC)OC(=O)CCCCCCCCCCC)NC(=O)CCCCCCCCCCCCC [ER 804678]	–	18	–
CCCCCC/C=C\CCCC(=O)O[C@H](CCCCCCC)CCOCC(COP(=O)([O-])OCCNC(=O)C(Cc1ccc(OCCNC(=O)OC(C)(C)C)cc1)C(=O)NCCOP(=O)([O-])OCC(COCC[C@@H](CCCCCCC)OC(=O)CCC/C=C\CCCCCC)NC(=O)CC(=O)CCCCCCCCCCC)NC(=O)CC(=O)CCCCCCCCCCC.[Na+].[Na+] (stereo partly shown) [compound 019772]	69 % of LPS	–	–
CCCCCCCCCCCCC(O)C(=O)N[C@H](COCC[C@@H](CCCCCCC)OC(=O)CCCCCCCCCCC)COP(=O)(O)OCCNC(=O)NCCOP(=O)(O)OC[C@@H](COCC[C@@H](CCCCCCC)OC(=O)CCCCCCCCCCC)NC(=O)C(O)CCCCCCCCCCCC (stereo partly shown) [compound 804313]	–	14	–
CCCCCC/C=C\CCCC(=O)O[C@H](CCCCCCC)CCOCC(COP(=O)([O-])OCCNC(=O)C(CCCCNC(=O)OC(C)(C)C)C(=O)NCCOP(=O)([O-])OCC(COCC[C@@H](CCCCCCC)OC(=O)CCC/C=C\CCCCCC)NC(=O)CCCCCCCCCCCCC)NC(=O)CCCCCCCCCCCCC.[Na+].[Na+] (stereo partly shown) [compound 119521]	103 % of LPS	–	–
CCCCCCCCCCCCCC(=O)O[C@@H](COCC[C@@H](CCCCCCC)OC(=O)CCCCCCCCCCC)COP(=O)([O-])OCCNC(=O)NCCOP(=O)([O-])OC[C@H](COCC[C@@H](CCCCCCC)OC(=O)CCCCCCCCCCC)OC(=O)CCCCCCCCCCCCC.[Na+].[Na+] [compound 803592]	15 % of LPS	–	–
CCCCCC/C=C\CCCC(=O)O[C@H](CCCCCCC)CCOCC(COP(=O)([O-])OCCNC(=O)C(Cc1ccc(OCCNC(=O)OC(C)(C)C)cc1)C(=O)NCCOP(=O)([O-])OCC(COCC[C@@H](CCCCCCC)OC(=O)CCC/C=C\CCCCCC)NC(=O)CCCCCCCCCCCCC)NC(=O)CCCCCCCCCCCCC.[Na+].[Na+] (stereo partly shown) [compound 119329]	2 ± 2 (n = 2) % of LPS	–	–
CCCCCC/C=C\CCCC(=O)O[C@H](CCCCCCC)CCOCC(COP(=O)([O-])OCCNC(=O)CC(=O)NCCOP(=O)([O-])OCC(COCC[C@@H](CCCCCCC)OC(=O)CCC/C=C\CCCCCC)NC(=O)C[C@H](O)CCCCCCCCCCC)NC(=O)C[C@H](O)CCCCCCCCCCC.[Na+].[Na+] (stereo partly shown) [compound 119001]	113 % of LPS	1230	–
CCCCCCCCCCCCCC(=O)NC(COCC[C@@H](CCCCCCC)OC(=O)CCCCCCCCCCC)COP(=O)([O-])OCCNC(=O)NCCOP(=O)([O-])OCC(COCC[C@@H](CCCCCCC)OC(=O)CCCCCCCCCCC)NC(=O)CCCCCCCCCCCCC.[Na+].[Na+] (stereo partly shown) [compound 119327]	165 ± 33 (n = 3) % of LPS	15	–
CCCCCC/C=C\CCCC(=O)O[C@H](CCCCCCC)CCOCC(COP(=O)([O-])OCCNC(=O)CC(=O)NCCOP(=O)([O-])OCC(COCC[C@@H](CCCCCCC)OC(=O)CCC/C=C\CCCCCC)NC(=O)CCCCCCCCCCCCC)NC(=O)CCCCCCCCCCCCC.[Na+].[Na+] (stereo partly shown) [compound 118989]	159 % of LPS	100	–
CCCCCCCCCCCCCCN[C@@H](COCC[C@@H](CCCCCCC)OC(=O)CCCCCCCCCCC)COP(=O)(O)OCCNC(=O)NCCOP(=O)(O)OC[C@H](COCC[C@@H](CCCCCCC)OC(=O)CCCCCCCCCCC)NCCCCCCCCCCCCCC [compound 804252]	–	–	EC50 ((576-021) + EtOH): 400 nM
CCCCCC/C=C\CCCC(=O)O[C@H](CCCCCCC)CCOCC(COP(=O)([O-])OCCNC(=O)C(CCCCN)C(=O)NCCOP(=O)([O-])OCC(COCC[C@@H](CCCCCCC)OC(=O)CCC/C=C\CCCCCC)NC(=O)CCCCCCCCCCCCC)NC(=O)CCCCCCCCCCCCC.[Na+].[Na+] (stereo partly shown) [compound 119523]	176 % of LPS	–	–
CCCCCCCCCCCCCC(=O)O[C@@H](COCC[C@@H](CCCCCCC)OC(=O)CCCCCCCCCCC)COP(=O)([O-])OCCNC(=O)CC(=O)NCCOP(=O)([O-])OC[C@H](COCC[C@@H](CCCCCCC)OC(=O)CCCCCCCCCCC)OC(=O)CCCCCCCCCCCCC.[Na+].[Na+] [compound 803059]	2 % of LPS	890	–
CCCCCCCCCCCCCC(=O)N[C@H](COCC[C@H](CCCCCCC)CCCCCCCCCCCC)COP(=O)(O)OCCNC(=O)NCCOP(=O)(O)OC[C@@H](COCC[C@H](CCCCCCC)CCCCCCCCCCCC)NC(=O)CCCCCCCCCCCCC [compound 804130]	–	660	–
CCCCCCCCCCCCCCN(C(C)=O)[C@H](COCC[C@@H](CCCCCCC)OC(=O)CCCCCCCCCCC)COP(=O)(O)OCCNC(=O)NCCOP(=O)(O)OC[C@@H](COCC[C@@H](CCCCCCC)OC(=O)CCCCCCCCCCC)N(CCCCCCCCCCCCCC)C(C)=O [compound 804339]	–	1060	–
CCCCCC/C=C\CCCC(=O)O[C@H](CCCCCCC)CCOC[C@@H](COP(=O)(O)OCCNC(=O)CC(=O)NCCOP(=O)(O)OC[C@H](COCC[C@@H](CCCCCCC)OC(=O)CCC/C=C\CCCCCC)NC(=O)CC(=O)CCCCCCCCCCC)NC(=O)CC(=O)CCCCCCCCCCC [compound 804061]	–	2500	–
CCCCCCC=CCC=CCCCCCCC(=O)OCC(COP(=O)(O)OCC(O)COP(=O)(O)OCC(COC(=O)CCCCCCC=CCC=CCCCCCC)OC(=O)CCCCCCC=CCC=CCCCCCC)OC(=O)CCCCCCC=CCC=CCCCCCC (stereo not shown) [compound 112072]	0 % of LPS	–	–
CCCCCCCCCCCCCCCC(=O)OCC(COP(=O)(O)OCC(O)COP(=O)(O)OCC(COC(=O)CCCCCCCCCCCCCCC)OC(=O)CCCCCCCCCCCCCCC)OC(=O)CCCCCCCCCCCCCCC (stereo not shown) [compound 112071]	0 % of LPS	–	–
